Experimental data: BindingDB's records for doi:10.1021/jm990412m (University of Queensland, 2000)
Residues, ends and D or L forms follow the SMILES beside them.

Assay: Binding affinity against Protease

CSCC[C@H](NC(=O)[C@H](CCC(=O)O)NC(=O)[C@H](CC(=O)O)NC(C)=O)C(=O)N[C@@H](CCC(=O)O)C(=O)N[C@@H](CCC(=O)O)C(=O)N[C@@H](CS)C(=O)O [AcAsp-Glu-Met-Glu-Glu-Cys] (Ac-DEMEEC-OH)
Ki: 0.6 µM
